“Also recorded” adds a separate entry of the source. Counter-ions that a name gives are not always drawn. Like-named read-outs stand apart in the source and are kept apart here.
How the values were obtained:
mouse Spns2 [1] = target: T1, mouse Spns2 (Mus musculus, UniProt Q91VM4); conditions: read-out: IC50 (Spns2 inhibition); cited from earlier work
T1 construct: expressed in transfected cells; host or cells: HeLa cells (G418-resistant pools)
T1 sequence (Q91VM4 1-549): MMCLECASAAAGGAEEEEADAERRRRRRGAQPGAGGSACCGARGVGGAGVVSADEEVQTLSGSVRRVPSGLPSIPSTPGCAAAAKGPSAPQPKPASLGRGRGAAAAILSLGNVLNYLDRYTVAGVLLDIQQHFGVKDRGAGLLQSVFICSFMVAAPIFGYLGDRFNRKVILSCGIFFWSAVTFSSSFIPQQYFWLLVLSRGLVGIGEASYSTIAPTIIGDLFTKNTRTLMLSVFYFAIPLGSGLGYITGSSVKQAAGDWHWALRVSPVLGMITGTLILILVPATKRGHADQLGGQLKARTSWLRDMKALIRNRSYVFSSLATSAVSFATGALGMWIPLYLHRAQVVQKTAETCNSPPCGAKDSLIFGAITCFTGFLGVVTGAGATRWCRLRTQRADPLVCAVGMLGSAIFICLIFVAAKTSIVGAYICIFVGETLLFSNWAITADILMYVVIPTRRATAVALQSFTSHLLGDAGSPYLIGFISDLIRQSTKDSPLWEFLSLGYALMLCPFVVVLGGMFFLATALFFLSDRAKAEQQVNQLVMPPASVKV

mouse Spns2 [2] = target: T1, mouse Spns2; assay: HeLa cell S1P release assay (Spns2 inhibition); type: cell-based; conditions: for inhibition at 1 µM / inhibition at 0.3 µM: HeLa; for inhibition at 1 µM: read-out: %Inhib. (Spns2 inhibition, percent decrease in S1P secretion relative to control); for inhibition at 0.3 µM: 0.3 μM inhibitor (Figure 5), read-out: % Inhibition, tail homologation study
Method: With a library of analogs of SLB1122168 containing phenylurea, phenylcarbamate, and benzamide as bioisostere of the benzoxazole, we investigated their potential in inhibiting S1P transport using a HeLa cell assay.[36]−[38],[43] Briefly, in this assay, Spns2 is overexpressed whereas the S1P-degrading enzymes (lyase or phosphatases) were blocked with inhibitors.[44],[45] Inhibition of S1P transport is determined by measuring the amount of S1P in the buffer using LC-MS.
This assay was conducted as reported by Kharel et al.[43] Briefly, compounds were assessed in a HeLa cell assay at a 1 μM test concentration, unless noted otherwise. HeLa cells were transfected with a pcDNA3.1 plasmid encoding mouse Spns2, and pools of cells resistant to G418 were selected. S1P catabolic pathways were suppressed by the addition of 4-deoxypyridoxine (1 mM), NaF (2 mM), and Na3VO4 (0.2 mM). After growing cells to near confluence on 12-well tissue culture dishes, growth media was removed, inhibitors were introduced in release media (serum free medium containing 0.2% fatty acid free BSA), and the cells were incubated for 16–18 h at 37 °C. The BSA with bound S1P was concentrated from the release media by TFA-driven precipitation after addition of the d7-S1P internal standard, the S1P extracted from the protein pellet, and quantified by LC-MS/MS. Lower levels of S1P release into the media indicated greater degrees of Spns2 inhibition. Inhibition is reported as the percent decrease in S1P release relative to the control where no inhibitor was introduced.

[3] = set-up: method as in PMID 37010497; conditions: cited from earlier work
[4] = Compound concentrations in plasma of mice after oral dose; type: in vivo, mice (C57BL/6j)
Method: We next investigated the potential oral bioavailability of 11i (SLF80821178), which will be a significant advantage over SLB1122168. […] Thus, mice were administered a single 10 mg/kg oral dose of 11i, and compound levels in plasma were quantified.
Figure 7 Compound concentrations in plasma of mice treated with 11i. Three C57BL/6j strain female mice (8–10 weeks old) were treated with a single 10 mg/kg dose of 11i administered PO. Blood samples were collected, and plasma 11i levels were quantified via LC-MS/MS.
Compounds that performed well in the HeLa cell assay were subsequently administered to mice (C57BL/6j strain). Inhibitor (10 mg/kg) or an equivalent dose of vehicle (36.1% PEG400/9.1% ethanol/4.6% solutol/50% H2O) was administered to animals via an intraperitoneal injection or oral gavage. After 6 to 16 h, blood samples were collected. Lymphocyte counts were obtained from 20 μL of mouse blood using a Heska HT5 Element blood analyzer. Plasma S1P concentrations were determined using LC-MS/MS. All animal protocols were approved prior to experimentation by the University of Virginia School of Medicine’s Animal Care and Use Committee.

circulating lymphocytes = assay: Circulating lymphocyte counts in mice; type: in vivo, mice (C57BL/6j)
Method: (§1) To determine the effect of 11iin vivo, mice were treated with 3, 10, and 30 mg/kg intraperitoneally, and the amount of circulating lymphocytes was quantified. A hallmark of Spns2 inhibition is the decrease in lymphocytes counts, which is a pharmacodynamic marker of target engagement.[54],[55] […] To determine whether blood S1P levels were affected, plasma S1P concentrations were measured via LC-MS. […] The extent by which Spns2 inhibition by knockout or a pharmacological inhibitor affects the S1P level remains unclear. A range of changes from no significant difference[30]−[32] to 45% reduction in plasma S1P levels compared to wild type littermates have been reported.[9],[24],[28],[33]
(§2) Figure 8 Biological evaluation of 11i in five C57BL/6j strain female mice (8–10 weeks old). […] Blood was drawn 4 h postdose. (B) Plasma S1P concentrations in mice treated with 11i are shown relative to vehicle 6 h following IP administration at 3 mg/kg, 10 mg/kg, and 30 mg/kg. […] Blood was drawn 4 h postdose. (D) Plasma S1P concentrations in mice treated with 11i are shown relative to vehicle 4 h post oral administration at 10 mg/kg, 30 mg/kg, and 100 mg/kg. […]
(§3) Compounds that performed well in the HeLa cell assay were subsequently administered to mice (C57BL/6j strain). […] Plasma S1P concentrations were determined using LC-MS/MS. […]

plasma S1P = assay: Plasma S1P concentrations in mice; type: in vivo, mice (C57BL/6j)
Method: as §1, §2, §3

mice = tested on: mice; set-up: method as in PMID 35609189; conditions: dose 30 mg/kg; cited from earlier work
kidney fibrosis = tested on: kidney fibrosis; set-up: method as in PMID 35976996; conditions: unilateral ischemia-reperfusion injury; cited from earlier work
[5] = 1 μM inhibitor, HeLa cells, S1P in media by LC-MS/MS

In the case of `CCCCCCCCCCc1ccc(-c2cn(CC)c(CCCN)n2)cc1` [SLF80721166], the IC50 (mouse Spns2 [1]) is listed as 1400 ± 300 nM.

In the case of `CCCCCCCCCCc1ccc2nc(NC[C@H]3CCNC3)oc2c1.Cl` [SLB1122168], the inhibition at 1 µM (mouse Spns2 [2]; [5]) is given as 85 ± 2% and the oral bioavailability [3] is given as “not orally bioavailable; also recorded: poor oral bioavailability”.

In the case of `CCCCCCCCCCc1ccc(NC(=O)N2CCNCC2)cc1.Cl` [11i, N-(4-Decylphenyl)piperazine-1-carboxamide Hydrochloride], the inhibition at 1 µM (mouse Spns2 [2]; [5]) is reported as ≥ 80%, the IC50 (mouse Spns2 [2]; dose-response 1 nM to 10 μM, HeLa cells transfected with Spns2, read-out: IC50, inhibition of S1P release from HeLa cells) is reported as 51 ± 3 nM and the oral bioavailability ([4]; 10 mg/kg PO) is reported as “orally bioavailable”. The Tmax ([4]; female, C57BL/6j, mouse, single 10 mg/kg PO, plasma, read-out: tmax (time of maximum circulating level)) was 4 h, the “compound exposure at tmax (maximum plasma concentration)” value ([4]; single 10 mg/kg PO, plasma) was 1.2 µM and the “time circulating levels remained elevated above 0.5 μM” value ([4]; single 10 mg/kg PO, plasma) was “more than 8 h”. For the same compound, the “decrease in lymphocyte count, maximum level” value (circulating lymphocytes; IP 3, 10 and 30 mg/kg, blood 4 h postdose) was 50%, the “reduction in circulating lymphocyte counts” value (circulating lymphocytes; route not stated at this place (abstract)) was ~50% and the “change in plasma S1P levels” value (plasma S1P; IP 3, 10 and 30 mg/kg, 6 h) was “no change”. The “change in plasma S1P levels” value (plasma S1P; PO 10, 30 and 100 mg/kg, 4 h) was “no change”.

In the case of `CCCCCCCCCCCCCc1ccc(NC(=O)N2CCNCC2)cc1` [20g, N-(4-Tridecylphenyl)piperazine-1-carboxamide Hydrogen Chloride], the inhibition at 0.3 µM (mouse Spns2 [2]; HeLa cells) is reported as 27 ± 12%.

For `CCCCCCCCCCc1ccc(C(=O)N[C@@H]2CCNC2)cc1.Cl` [(R)-4c, (R)-4-Decyl-N-(pyrrolidin-3-yl)benzamide Hydrochloride], the “%Inhib. (Spns2 inhibition, percent decrease in S1P secretion relative to control)” value (mouse Spns2 [2]; 1 μM inhibitor, HeLa cells, S1P in media by LC-MS/MS, 1 µM) was 66 ± 1% and the inhibition at 1 µM (mouse Spns2 [2]; [5]) was 61 to 66%.

Work on `CCCCCCCCCCc1ccc(C(=S)N[C@@H]2CCCNC2)cc1` [(R)-15c, (R)-4-Decyl-N-(piperidin-3-yl)benzothioamide Hydrochloride] yielded an inhibition at 1 µM (mouse Spns2 [2]; [5]) of 47%.

With `CCCCCCc1ccc(NC(=O)N2CCNCC2)cc1` [20a, N-(4-Hexylphenyl)piperazine-1-carboxamide Hydrogen Chloride] the inhibition at 0.3 µM (mouse Spns2 [2]; HeLa cells) was 19 ± 2%.

`CCCCCCCCCCc1ccc(C(=S)NCCCN)cc1` [15a, N-(3-Aminopropyl)-4-decylbenzothioamide Hydrochloride] gave an inhibition at 1 µM (mouse Spns2 [2]; [5]) of 23 ± 1%.

For `CCCCCCCCCCc1ccc(C(=O)NCCCN)cc1` [4a, N-(3-Aminopropyl)-4-decylbenzamide Hydrochloride], the inhibition at 1 µM (mouse Spns2 [2]; [5]) was 39 ± 9%.

With `CCCCCCCCCCc1ccc(C(=O)NC2CNC2)cc1` [4b, N-(Azetidin-3-yl)-4-decylbenzamide 2,2,2-Trifluoroacetate] the inhibition at 1 µM (mouse Spns2 [2]) was 77 ± 1%.

In the case of `CCCCCCCCCCc1ccc(-c2noc(CCCN)n2)cc1.Cl` [SLF1081851], the inhibition at 1 µM (mouse Spns2 [2]; [5]) is listed as 44 ± 5%, the toxicity to mice (mice) is listed as “toxic” and the “effect on kidney fibrosis” value (kidney fibrosis) is listed as “ameliorated kidney fibrosis”.

In the case of `CCCCCCCCCCc1ccc(NC(=O)N[C@H]2CCCNC2)cc1` [(S)-11f, (S)-1-(4-Decylphenyl)-3-(piperidin-3-yl)urea Hydrochloride], the inhibition at 1 µM (mouse Spns2 [2]; [5]) is reported as 78 ± 4%.

Reference: paper PMC11247503 (Journal of Medicinal Chemistry, 2024)
